Measured values reported in US20220133753A1, “COMPOSITIONS AND METHODS USEFUL FOR TREATING DISEASES CHARACTERIZED BY INSUFFICIENT PANTOTHENATE KINASE ACTIVITY” (Comet Therapeutics, Inc., priority 2016, published 2022).

How the values were obtained:
[1] = test system: conversion of CoA into 4′-phosphopantetheine in serum; type: biochemical; settings: serum pre-treated with the agent, CoA 10 μM, 3 hours
Method: (PpanSH=4′-phosphopantetheine; in all panels CoA was added to the indicated sera with a final starting concentration of 10 μM measured by HPLC analysis and percentages relative to CoA incubation for 3 hours in PBS (=100%) are indicated on the y-axis).
Serum from various species (fetal calf, mouse and human) was pre-conditioned, and CoA conversion into 4′-phosphopantetheine was assessed. First, the effect of heat inactivation of the serum was studied. […] Second, the conversion of CoA to 4′-phosphopantetheine requires the hydrolysis of a phosphoanhydride bond, which is typically catalyzed by (pyro)phosphatases or hydrolases. The majority of enzymes in the known family of (pyro)phosphatases and hydrolases depend on metal ions for their activity. To test these candidates, EDTA was added to serum to chelate metal ions.

Drosophila S2 cells = experiment: HoPan treatment of Drosophila S2 cells in combination with CoA or 4′-phosphopantetheine; type: cell-based; settings: HoPan alone
Method: HoPan treatment of Drosophila S2 Cell in combination with CoA or 4′-phosphopantetheine treatment: Drosophila Schneider's S2 cells were maintained at standard conditions as explained above. Cells in the exponential phase of growth were used for all the experiments. Different indicated concentrations of CoA or 4′-phosphopantetheine (deuterium labelled PPanSH(D4) or unlabeled PPanSH) were added to S2 cells either in the presence or absence of 0.5 mM HoPan (Zhou Fang Pharm Chemical, China) for 48 h. Similarly, Drosophila S2 cells were treated with different concentrations of PPanSH(D4) at either 25° C. or 4° C. and cells were then harvested at various time points to access transport of PPanSH(D4). Stable isotope labelled PPanSH containing 4 deuterium atoms was purchased from Syncom (Groningen, The Netherlands) as a sodium salt (chemical structure is provided in FIG. 13A). As a read out cell count, intracellular total CoA and PPanSH levels (both labelled and unlabeled levels wherever appropriate) and histone acetylation levels were analyzed as explained below.
Drosophila S2 Cell Immunofluorescence Staining: For immunofluorescence Drosophila S2 cells were seeded on Poly-L-Lysine coated (Sigma-Aldrich) glass microscope slides and allowed to settle for 45 min. Cells were fixed with 3.7% formaldehyde (Sigma Aldrich) for 20 min, washed briefly with PBS+0.1% Triton-X-100 (Sigma Aldrich) and permeabilized with PBS+0.2% Triton-X-100 for 20 min. The slides were incubated in primary antibody (rabbit anti-AcLys, Cell Signaling Cat No: 9441, 1:500) to visualize histone acetylation levels in PBS+0.1% Triton-X-100 overnight and after an additional washing step in PBS+0.1% Triton-X-100 they were incubated in secondary goat anti-rabbit-Alexa488 antibody (Molecular Probes) for two hours at room temperature (RT). F-actin was detected with Rhodamin-Phalloidin (20 U/ml)(Invitrogen) and DNA by staining with DAPI (0.2 ug/ml) (Thermo Scientific). Finally the samples were mounted in 80% glycerol and analyzed using a Leica fluorescence microscope with Leica software. Adobe Photoshop and Illustrator (Adobe Systems Incorporated, San Jose, Calif., USA) were used for image assembly.

HEK293 cells = experiment: HoPan treatment of mammalian HEK293 cells in combination with CoA or 4′-phosphopantetheine; type: cell-based, human; settings: HoPan alone
Method: HoPan treatment of mammalian HEK293 Cells in combination with CoA and 4′-phosphopantetheine treatment: HEK293 cells were maintained in dMEM (Invitrogen) supplemented with 10% fetal calf serum (Gibco) and antibiotics (penicillin/streptomycin, Invitrogen). For HoPan treatment, cells were cultured in custom made dMEM without vitamin B5 (Thermo Scientific) supplemented with dialyzed FCS (Thermo Scientific). CoA or PPanSH was added to HEK293 cells for the final concentration of 25 uM, either in the presence or absence of HoPan (0.5 mM) for 4 days, followed by analysis for phenotype and rescue efficiency of CoA and PPanSH.
Western blot analysis and Antibodies: For Western blot analysis, cells were collected and washed with phosphate buffer saline (PBS), followed by centrifugation. The cells were lysed and sonicated in 1X Laemmli Sample Buffer and boiled for 5 min with 5% β-mercaptoethanol (Sigma). Protein content was determined using DC protein assay (BioRad). Equal amounts of protein were loaded on a 10 or 12.5% SDS-PAGE gel, transferred onto PVDF membranes and blocked with 5% milk in PBS/0.1% Tween, followed by overnight incubation with primary antibodies. The primary antibodies used were: rabbit-anti dPANK/fbl, 1:4000 Eurogentec custom made as described previously5, mouse anti-tubulin (Sigma Aldrich Cat no: T5168, 1:5000), anti-acetyl-Histone3 (Active Motif Cat no: 39139, 1:2000), anti GAPDH (Fitzgerald Cat no: 10R-G109a, 1:10000), rabbit anti COASY (Abcam Cat no: AB129012, 1:1000). Appropriate HRP-conjugated secondary antibodies (Amersham) were used and detection was performed using enhanced chemi-luminescence (Pierce cat nog: 32106) and Amersham hyperfilm (GE Healthcare). Band intensities were quantified with Image-studio software.

[2] = test system: Drosophila w1118 control fly line; experiment: Drosophila HoPan toxicity and CoA rescue experiment (eclosion); type: in vivo; settings: HoPan in the food during development
Source text: Drosophila HoPan Toxicity and CoA Rescue Experiment: One week old w1118 flies (in the ratio 10 females and 5 males) were kept in vials containing standard fly food with or without HoPan and CoA at indicated concentrations. The flies were allowed to lay eggs for 2 days, after which the adults were discarded. The resulting offspring were allowed to develop. The numbers of flies which eclosed were counted to evaluate HoPan toxicity and CoA rescue efficiency.

[3] = test system: MCAD patient fibroblast cell lines; experiment: Mitochondrial stress test (Seahorse), reserve capacity of MCAD patient fibroblasts; type: cell-based, human; settings: all cell lines, data not shown
Source text: Medium-chain acyl-CoA dehydrogenase (MCAD) deficiency is a condition in which the body's capacity to break down fats with medium chain lengths is impaired, caused by mutations in the ACADM gene, which can lead to hypoglycaemia, and liver dysfunction. Left untreated, it can lead to seizures, coma and other serious health problems, with acute symptoms often preceded by extended periods of fasting or an infection with vomiting. Impaired metabolism were observed through functional measurements of respiration using a Seahorse XF Analyzer, where oxygen consumption rate (OCR) reflects oxidative respiration.
A study was performed to test the Rescue potential of S-acetyl-4′-phosphopantetheine in primary patient fibroblast model of MCAD deficiency. MCAD patient fibroblast cell lines (genotyped as containing homozygous K304E mutations in ACADM) were subject to a mitochondrial stress test according to standard protocol with a cell seeding density of 30 k cells/well (n=2). Rescue potential was assessed by increase in reserve capacity: defined as the difference between basal and maximal OCR, controlled by subtracting values for non-mitochondiral respiration (after rotenone treatment). The study was performed in two replicates.

[4] = test system: primary human fibroblasts from healthy controls, MCAD deficiency and PA deficiency patients; experiment: Mitochondrial stress test (Seahorse), basal OCR of primary fibroblasts; type: cell-based; settings: data not shown
Source text: A study was thus performed to test the ability of S-acetyl-(S)-4′-phosphopantetheine to facilitate increased basal oxidative respiration in primary fibroblast cultures from patients diagnosed with MCAD deficiency and PA deficiency. Impaired metabolism were observed through functional measurements of respiration using a Seahorse XF Analyzer, where oxygen consumption rate (OCR) reflects oxidative respiration.
Patient derived cell lines were subject to a mitochondrial stress test according to standard protocol with a cell seeding density of 30 k cells/well (n=2) in glucose free media. After incubation with various concentrations of S-acetyl-4′-phosphopantetheine or vehicle for 24 h, rescue potential was assessed by increase in basal OCR (average of six readings between 30-70 min), relative to control: basal OCR from vehicle treatment was set to 1.0. […] Experiment was performed in two replicates: systematically outlying values caused by seeding errors, port failures, or values within background were excluded from analysis.

[5] = Parallel Artificial Membrane Permeability Assay (PAMPA); type: in vitro ADME; settings: PAMPA
Method: FIG. 13E is a depiction of a Parallel Artificial Membrane Permeability Assay (PAMPA). Experiments were performed according to the manufacturer's instructions. In this assay, a two-well system is separated by an artificial lipid-oil-lipid membrane (shown in grey). To the lower (donor) compartment, a compound dissolved in buffer is added, the upper (acceptor) compartment contains only buffer. After 5 hours of incubation, concentration of compound is measured in both wells to assess its propensity to diffuse over the artificial membrane. The permeability was calculated according to the manufacturer's instruction (formulas are depicted to the right). Compounds that are below the assay threshold are predicted to be unable to pass membranes passively, whereas compounds above the threshold are able to pass membranes passively. Ceq=Equilibrium Concentration, CD=Concentration in donor well, VD=Volume of donor well (0.3 ml), CA=Concentration in acceptor well, VA=Volume of acceptor well (0.2 ml), P=Permeability, S=Membrane area (0.3 cm2), t=Incubation time (18000 s).
PAMPA assay procedure: Parallel Artificial Membrane Permeability Assay (PAMPA) was performed and processed according to manufacturer's instructions (BD Gentest Pre-coated PAMPA plates). Briefly, two superimposed wells are separated by an artificial lipid-oil-lipid membrane. The compound of interest (PPanSH, CoA, caffeine, amiloride) was added to the bottom well in phosphate-buffered saline, whereas the top well was filled with phosphate-buffered saline alone. After 5 h of incubation at room temperature, concentrations of the different compounds were measured using UV-VIS absorption spectroscopy (BMG Labtech SPECTROstar Omega) along with calibration curves for all compounds. The permeability efficiency was further calculated according to manufacturer's instructions. For caffeine and amiloride, four replicates were performed; for PPanSH and CoA twelve replicates were performed. Caffeine and amiloride were obtained from Sigma.

In the case of `Nc1ncnc2c1ncn2[C@@H]1O[C@H](COP(=O)(O)OP(=O)(O)O)[C@@H](O)[C@H]1O` [ADP], the “effect on conversion (degradation) of CoA into 4′-phosphopantetheine in serum” value (shortened to “effect on conversion (degradation)”) [1] is reported as “competitively blocked the conversion”.
For `Nc1ncnc2c1ncn2[C@@H]1O[C@H](COP(=O)(O)OP(=O)(O)OP(=O)(O)O)[C@@H](O)[C@H]1O` [ATP], the “effect on conversion (degradation)” value [1] was “competitively blocked the conversion”.
For `O=S(=O)(O)c1cc(N=C=S)ccc1C=Cc1ccc(N=C=S)cc1S(=O)(=O)O` [DIDS, 4,4′-diisothiocyanatostilbene-2,2′ disulphonic acid], the “effect on conversion (degradation)” value [1] was “able to inhibit”.
With `O=C(O)CN(CCN(CC(=O)O)CC(=O)O)CC(=O)O` [EDTA] the “effect on conversion (degradation)” value [1] was “completely prevented the formation of 4′-phosphopantetheine”.
With `CC(C)(CO)[C@@H](O)C(=O)NCCCC(=O)O` [HoPan, Hopantenate] the “cell count of S2 cells” value (Drosophila S2 cells) was “induced a decrease in cell count”, the “histone acetylation levels of S2 cells” value (Drosophila S2 cells) was “induced a decrease” and the “intracellular CoA levels” value (Drosophila S2 cells; S2 cells, HPLC) was “significantly reduced”. For the same molecule, the “intracellular levels of 4′-phosphopantetheine” value (Drosophila S2 cells; S2 cells, HPLC) was “reduced levels of 4′-phosphopantetheine”, the “intracellular CoA levels” value (HEK293 cells; HEK293 cells, HPLC) was “significantly reduced” and the “cell count of HEK293 cells” value (HEK293 cells) was “decreased cell count”. For the same molecule, the “histone acetylation of HEK293 cells” value (HEK293 cells) was “impaired histone acetylation”, the eclosion rate [2] was “decreased” and the larval lethality [2] was “larval lethality was induced”.
With `c1ccc([C@H]2CN3CCSC3=N2)cc1` [Levamisole, levamisole] the “effect on conversion (degradation)” value [1] was “only mild or no inhibition”.
For `C=C(C)[C@H]1Cc2c(ccc3c2O[C@@H]2COc4cc(OC)c(OC)cc4[C@@H]2C3=O)O1` [Rotenone], the “cell line response to positive control” value [3] was “generated expected profiles of ETC inhibition” and the “cell line response to positive control” value [4] was “generated expected profiles”.
For `N=C(N)NC(=O)c1nc(Cl)c(N)nc1N` [amiloride], the “membrane permeation (PAMPA)” value [5] was “poorly permeating molecule”.
For `Cn1c(=O)c2c(ncn2C)n(C)c1=O` [caffeine], the “membrane permeation (PAMPA)” value [5] was “well-permeating compound”.
For `[F-].[Na+]` [sodium fluoride, Sodium fluoride], the “effect on conversion (degradation)” value [1] was “only mild or no inhibition”.
In the case of `Cc1ccc(C(=O)Nc2ccc(S(=O)(=O)O)c3cc(S(=O)(=O)O)cc(S(=O)(=O)O)c23)cc1NC(=O)c1cccc(NC(=O)Nc2cccc(C(=O)Nc3cc(C(=O)Nc4ccc(S(=O)(=O)O)c5cc(S(=O)(=O)O)cc(S(=O)(=O)O)c45)ccc3C)c2)c1` [suramin], the “effect on conversion (degradation)” value [1] is reported as “able to inhibit”.
